Patent US11092608B2, “Methods of identifying modulators of CASTOR1-GATOR2 interaction and use of same to modulate mTORC1” (Whitehead Institute for Biomedical Research, priority 2015, dated 2021)
pEC50, pKd: −log10 of the molar value. Values joined by “and” are separate entries in the source; they are usually repeats but may differ in a detail not shown here. Equal entries are not always repeated.

Columns and labels:
[1] = target: T1, CASTOR1 homodimer (Homo sapiens, UniProt Q8WTX7); assay: Arginine binding assay (equilibrium / competition binding with [3H]-labeled amino acids); details: for binding of radiolabeled amino acid to CASTOR1 homodimer: immunopurified from HEK-293T cells, competed by excess nonradiolabelled arginine
T1 construct: made in house; host or cells: HEK-293T (transfected, pRK5-based cDNA plasmids; anti-FLAG immunoprecipitates)
T1 sequence (Q8WTX7 1-329) 1: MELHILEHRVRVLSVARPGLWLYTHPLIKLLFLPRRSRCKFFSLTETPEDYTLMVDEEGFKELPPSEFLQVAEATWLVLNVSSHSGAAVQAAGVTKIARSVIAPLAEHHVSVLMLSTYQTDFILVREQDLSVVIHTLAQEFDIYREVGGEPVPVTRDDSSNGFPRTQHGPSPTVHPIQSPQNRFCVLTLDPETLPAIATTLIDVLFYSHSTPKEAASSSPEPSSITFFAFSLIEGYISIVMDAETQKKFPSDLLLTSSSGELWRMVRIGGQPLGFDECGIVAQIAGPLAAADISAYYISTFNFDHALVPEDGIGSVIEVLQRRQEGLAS
T1 sequence (Q8WTX7 1-329) 2: T1 sequence (Q8WTX7 1-329) 1
Experimental: (§1) Four million HEK-293T cells were plated in a 15 cm plate four days prior to the experiment. Forty-eight hours after plating, the cells were transfected via the polyethylenimine method (Boussif et al., 1995) with the pRK5-based cDNA expression plasmids indicated in the figures in the following amounts: 15 μg FLAG-Rap2A, 400 ng CASTOR1-FLAG or CASTOR2-FLAG with 1200 ng CASTOR1-HA or 1200 ng CASTOR2-HA, 400 ng CASTOR1 1280A-FLAG with 1200 ng CASTOR1 1280A-HA. The total amount of plasmid DNA in each transfection was normalized to 15 μg with empty pRK5. Forty-eight hours after transfection cells were lysed as previously described (Wolfson et al., 2015). If multiple samples of the same type were represented in the experiment, the cell lysates were combined, mixed, and evenly distributed amongst the relevant tubes.
(§2) Anti-FLAG immunoprecipitates were prepared as previously described, with the exception that prior to incubation with lysates, the beads were blocked by rotating in 1 μg/μl bovine serum albumin (BSA) for 20 minutes at 4° C. and subsequently washed twice in lysis buffer. Thirty μl of the 50% slurry of beads in lysis buffer was added to each of the clarified cell lysates and incubated for 90 minutes.
(§3) For the binding assays, all immunoprecipitates were washed in pairs once with Triton wash buffer, three times with Triton lysis buffer supplemented with 500 mM NaCl, and three times with cytosolic buffer (0.1% Triton, 40 mM HEPES pH 7.4, 10 mM NaCl, 150 mM KCl, 2.5 mM MgCl2). All the liquid was subsequently aspirated and a 15 μl aliquot of proteins bound to the beads was incubated for one hour on ice in cytosolic buffer with the appropriate amount of [^3H]-labeled amino acids and cold amino acids. At the end of one hour, the beads were spun at 2,500 rpm for 25 seconds, aspirated, and rapidly washed three times with binding wash buffer (0.1% Triton, 40 mM HEPES pH 7.4, 150 mM NaCl). The beads were aspirated dry and resuspended in 85 μl of binding wash buffer. Three 10 μl aliquots of this mix were separately quantified using a TriCarb scintillation counter (PerkinElmer).
(§4) For each sample, an immunoprecipitation was performed in parallel. After washing four times as previously described, the beads were aspirated dry and resuspended in 50 μl FLAG elution buffer (Triton wash buffer supplemented with 300 mM NaCl and 1 mg/ml FLAG peptide), and incubated with rotation for 1 hour at 4° C. The eluent was subsequently resuspended in sample buffer. Equal volumes of the eluent were resolved by 10% SDS-PAGE and analyzed with Coomassie Blue stain. Kd values were calculated as previously described (Wolfson et al., 2015).

[2] = target: T2, CASTOR2 homodimer (Homo sapiens, UniProt A6NHX0); assay: Arginine binding assay (equilibrium binding with [3H]-labeled arginine); details: immunopurified from HEK-293T cells
T2 construct: made in house; host or cells: HEK-293T (transfected, pRK5-based cDNA plasmids; anti-FLAG immunoprecipitates)
T2 sequence (A6NHX0 1-329) 1: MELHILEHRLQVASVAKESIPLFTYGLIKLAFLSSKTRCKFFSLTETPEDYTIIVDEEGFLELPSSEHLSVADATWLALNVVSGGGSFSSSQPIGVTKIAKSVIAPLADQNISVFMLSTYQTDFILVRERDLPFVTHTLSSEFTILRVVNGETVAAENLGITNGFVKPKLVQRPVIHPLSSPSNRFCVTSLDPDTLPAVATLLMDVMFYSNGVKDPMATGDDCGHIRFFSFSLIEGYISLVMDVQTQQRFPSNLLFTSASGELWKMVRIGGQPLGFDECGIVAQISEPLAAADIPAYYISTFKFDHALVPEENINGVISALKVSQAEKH
T2 sequence (A6NHX0 1-329) 2: T2 sequence (A6NHX0 1-329) 1
Experimental: as §1, with “If multiple samples of the same type were represented in the experiment, the cell lysates were combined, mixed, and evenly distributed amongst the relevant tubes.” left out
For the binding assays, all immunoprecipitates were washed in pairs once with Triton wash buffer, three times with Triton lysis buffer supplemented with 500 mM NaCl, and three times with cytosolic buffer (0.1% Triton, 40 mM HEPES pH 7.4, 10 mM NaCl, 150 mM KCl, 2.5 mM MgCl2). […] Three 10 μl aliquots of this mix were separately quantified using a TriCarb scintillation counter (PerkinElmer).
For each sample, an immunoprecipitation was performed in parallel. […] Equal volumes of the eluent were resolved by 10% SDS-PAGE and analyzed with Coomassie Blue stain. Kd values were calculated as previously described (Wolfson et al., 2015).

[3] = target: T3, interaction of GATOR2 with CASTOR1-CASTOR2 heterodimer (Homo sapiens, UniProt Q8WTX7); assay: In vitro CASTOR-GATOR2 dissociation assay; assay type: biochemical
T3 construct: made in house; host or cells: HEK-293T co-transfected with the CASTOR cDNAs; GATOR2 is the cells' endogenous complex, co-immunoprecipitated on anti-HA beads
T3 sequence (Q8WTX7 1-329): T1 sequence (Q8WTX7 1-329) 1
T3 sequence (A6NHX0 1-329 partner): T2 sequence (A6NHX0 1-329) 1
Experimental: (§5) HEK-293T cells co-transfected with 40 ng CASTOR1-HA and either 80 ng CASTOR1-FLAG (CASTOR1 homodimer) or 80 ng CASTOR2-FLAG (CASTOR1-CASTOR2 heterodimer) were starved for all amino acids for 50 minutes, lysed and subjected to anti-HA immunoprecipitation as described previously. The CASTOR-GATOR2 complexes immobilized on agarose beads were washed once in Triton wash buffer, three times in Triton wash buffer supplemented with 500 mM NaCl, and then incubated for 20 minutes in 1 mL of ice-cold Triton wash buffer supplemented with 500 mM NaCl and the indicated concentrations of individual amino acids. The amount of GATOR2 that remained bound to CASTOR complexes was assayed by SDS-PAGE and immunoblotting as previously described.

[4] = target: T4, interaction of GATOR2 with CASTOR1 homodimer (Homo sapiens, UniProt Q8WTX7); assay: In vitro CASTOR-GATOR2 dissociation assay; assay type: biochemical
T4 construct: made in house; host or cells: HEK-293T co-transfected with the CASTOR cDNAs; GATOR2 is the cells' endogenous complex, co-immunoprecipitated on anti-HA beads
T4 sequence (Q8WTX7 1-329) 1: T1 sequence (Q8WTX7 1-329) 1
T4 sequence (Q8WTX7 1-329) 2: T1 sequence (Q8WTX7 1-329) 1
Experimental: as §5

[5] = target: T5, CASTOR1-CASTOR2 heterodimer (Homo sapiens, UniProt Q8WTX7); assay: Arginine binding assay (equilibrium / competition binding with [3H]-labeled amino acids)
T5 construct: made in house; host or cells: HEK-293T (transfected, pRK5-based cDNA plasmids; anti-FLAG immunoprecipitates)
T5 sequence (Q8WTX7 1-329): T1 sequence (Q8WTX7 1-329) 1
T5 sequence (A6NHX0 1-329 partner): T2 sequence (A6NHX0 1-329) 1
Experimental: as §1, §2, §3, §4

[6] = 400 μM arginine added to purified complexes
[7] = competition binding with increasing cold arginine, FLAG immunoprecipitates from HEK-293T cells

NCCCC[C@H](N)C(=O)O [lysine]
binding of radiolabeled amino acid to CASTOR1 homodimer [1]: neither radiolabeled leucine nor lysine bound

N=C(N)NCCC[C@H](N)C(=O)O [arginine]
binding of tritiated arginine to CASTOR2 homodimer [2]: not
dissociation of GATOR2 from CASTOR1-CASTOR2 heterodimer [3, 6]: sufficient to dissociate GATOR2
pEC50 ([3]; purified complexes from amino acid starved HEK-293T cells, CASTOR1-CASTOR2 heterodimer, read-out: arginine concentration for half-maximal disruption of GATOR2 interaction): 4.40 to 4.70
dissociation of GATOR2 from CASTOR1 homodimer [4, 6]: sufficient to dissociate GATOR2
pEC50 ([4]; purified complexes from amino acid starved HEK-293T cells, CASTOR1 homodimer, read-out: arginine concentration for half-maximal disruption of GATOR2 interaction): 4.40 to 4.70
arginine binding to CASTOR1-CASTOR2 heterodimer purified from E. coli ([5]; bacterially produced protein): bound arginine to a comparable degree as the complexes prepared from human cells
pKd [5, 7]: ~4.52 and 4.62
amount of arginine bound by CASTOR1-CASTOR2 heterodimer relative to CASTOR1 homodimer ([5]; immunopurified from HEK-293T cells): roughly half as much arginine as the CASTOR1 homodimer
arginine binding to CASTOR1 homodimer purified from E. coli ([1]; bacterially produced protein): bound arginine to a comparable degree as the complexes prepared from human cells
pKd [1, 7]: ~4.52 and 4.46
binding of radiolabeled amino acid to CASTOR1 homodimer [1]: bound

CC(C)C[C@H](N)C(=O)O [leucine]
binding of radiolabeled amino acid to CASTOR1 homodimer [1]: neither radiolabeled leucine nor lysine bound
